A value given as a limit tells only on which side of the number the result lay.

For the first test, the target named is T1, Human cathepsin S (Homo sapiens, UniProt P25774). In words: Cathepsin S Assay (Z-Val-Val-Arg-AMC hydrolysis). The test is classed as biochemical. The following applies: Table 1. The protocol: Solutions of test compounds in varying concentrations were prepared in 10 μL of dimethyl sulfoxide (DMSO) and then diluted into assay buffer (40 μL, comprising: MES, 50 mM (pH 6.5); EDTA, 2.5 mM; and NaCl, 100 mM); β-mercaptoethanol, 2.5 mM; and BSA, […]. Human cathepsin S (0.05 pMoles in 25 μL of assay buffer) was added to the dilutions. The assay solutions were mixed for 5-10 seconds on a shaker plate, covered and incubated for 30 min at room temperature. Z-Val-Val-Arg-AMC (4 nMoles in 25 μL of assay buffer containing 10% DMSO) was added to the assay solutions and hydrolysis was followed spectrophotometrically (at λ 460 nm) for 5 min. Apparent inhibition constants (Ki) were calculated from the enzyme progress curves using standard mathematical models.
T1 sequence (P25774 115-331): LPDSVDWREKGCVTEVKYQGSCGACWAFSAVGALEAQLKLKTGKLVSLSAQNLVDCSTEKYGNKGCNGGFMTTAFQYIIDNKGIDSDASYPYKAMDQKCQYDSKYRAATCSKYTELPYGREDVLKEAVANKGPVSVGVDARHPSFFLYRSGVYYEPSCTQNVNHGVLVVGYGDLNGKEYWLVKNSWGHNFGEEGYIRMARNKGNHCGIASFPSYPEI
In turn, `CCCCC(F)(F)C[C@H](N[C@@H](c1ccc(F)cc1)C(F)(F)F)C(=O)NC1(C#N)CC1` [drawing 33] had a Ki below 10 nM.

With `CCC(F)(F)C[C@H](N[C@@H](c1ccc(F)cc1)C(F)(F)F)C(=O)NC1(C#N)CC1` [drawing 30], the Ki is below 10 nM.

`CCCC(F)(F)C[C@H](N[C@@H](c1ccc(F)cc1)C(F)(F)F)C(=O)NC1(C#N)CC1` [drawing 32] had a Ki below 10 nM.

In turn, `CC(C)CC(F)(F)C[C@H](N[C@@H](c1ccc(F)cc1)C(F)(F)F)C(=O)NC1(C#N)CC1` [drawing 31] displayed a Ki below 10 nM.

The test is the same for the next values; noted with them: Table 3.
As for `N#CC1(NC(=O)[C@H](CC(F)(F)c2ccccc2)N[C@@H](c2ccc(F)cc2)C(F)(F)F)CC1`, the Ki is below 20 nM.

For `CCCCC(F)(F)C[C@H](N[C@@H](c1ccc(F)cc1)C(F)(F)F)C(=O)NC1(C#N)CC1` [drawing 44], the Ki was below 20 nM.

As for `CC(C)CC(F)(F)C[C@H](N[C@@H](c1ccc(F)cc1)C(F)(F)F)C(=O)NC1(C#N)CC1` [drawing 40], the Ki is below 20 nM.

For the compound `N#CC1(NC(=O)[C@H](CC(F)(F)CC2CC2)N[C@@H](c2ccc(F)cc2)C(F)(F)F)CC1`, the Ki was below 20 nM.

In the case of `CCC(F)(F)C[C@H](N[C@@H](c1ccc(F)cc1)C(F)(F)F)C(=O)NC1(C#N)CC1` [drawing 42], the inhibition constant (Ki) is below 20 nM.

Take `CCCC(F)(F)C[C@H](N[C@@H](c1ccc(F)cc1)C(F)(F)F)C(=O)NC1(C#N)CC1` [drawing 43]: the Ki was below 20 nM.

For the compound `N#CC1(NC(=O)[C@H](CC(F)(F)Cc2ccccc2)N[C@@H](c2ccc(F)cc2)C(F)(F)F)CC1`, the Ki is below 20 nM.

`CCC(F)(F)CC[C@H](N[C@@H](c1ccc(F)cc1)C(F)(F)F)C(=O)NC1(C#N)CC1` came in with a Ki below 20 nM.

The same test, now with this note: text statement for drawn compounds.
Consider `CC(C)CS(=O)(=O)C[C@H](N[C@@H](c1ccc(F)cc1)C(F)(F)F)C(=O)NC1(C#N)CC1`, for which the Ki was below 10 nM.

Another test concerns the target T1, Human cathepsin S. In words: Cathepsin S Assay (Z-Val-Val-Arg-AMC hydrolysis). The test is classed as biochemical. The following applies: Table 2; Enzyme CatS.
Compound `COc1ccc([C@H](N[C@@H](CC(F)(F)CC2CC2)C(=O)NC2(C#N)CC2)C(F)(F)F)cc1` gave an IC50 below 10 nM.

For the compound `N#CC1(NC(=O)[C@H](CC(F)(F)CC2CC2)N[C@@H](c2ccccc2)C(F)(F)F)CC1`, the IC50 is below 10 nM.

The compound `N#CC1(NC(=O)[C@H](CC(F)(F)CC2CC2)N[C@@H](c2ccc(C(F)(F)F)cc2)C(F)(F)F)CC1` showed an IC50 below 10 nM.

As to `N#CC1(NC(=O)[C@H](CC(F)(F)CC2CC2)N[C@@H](c2ccc(F)c(F)c2)C(F)(F)F)CC1`, the IC50 was below 10 nM.

What is called Ki is the equilibrium dissociation constant of an inhibitor or competing ligand from its target. What is called IC50 is the concentration needed to halve the response being measured. A low value points to higher potency.
